Test results published in US5817669A, “Compounds, processes for the preparation thereof and anti-tumor agents” (Dainippon Pharmaceutical Co., Ltd., priority 1994, dated 1998).
In brackets after ≈: the same amount, converted by molar mass. Like-named read-outs stand apart in the source and are kept apart here.

Tests used:
HMV2 human melanoma = assay: In vitro anti-tumor activity against HMV-2 human melanoma (MTT); format: cell-based; details: HMV-2, 72 h, MTT, read-out: IC50
Experimental: (§1) A culture medium containing 500 to 2,000 human cancer cells was put in an amount of 0.1 ml in each well of 96-well plate, and the cells were cultured for 20 hours under a condition of 37° C. and 5% carbon dioxide gas in air. After the culturing, a solution of test compounds of predetermined concentration was added, and then, the cells were cultured for further 72 hours. After the culturing, an MTT (5 mg/ml) solution was added in an amount of 0.01 ml in the respective wells, and the cells were cultured for further 4 hours. The supernatants of the culture medium were removed by suction, and then, 0.1 ml of dimethyl sulfoxide was put in respective well to dissolve the formed formazan, and, moreover, 0.1 ml of dimethyl sulfoxide was added.

[1] = system: KB human nasopharynx cancer; assay: In vitro anti-tumor activity against KB human nasopharynx cancer (MTT); format: cell-based; details: KB, 72 h, MTT, read-out: IC50
Experimental: as §1

C33A human cervix cancer = assay: In vitro anti-tumor activity against C-33A human cervix cancer (MTT); format: cell-based; details: C-33A, 72 h, MTT, read-out: IC50
Experimental: as §1

[2] = system: AZ521 human stomach cancer; assay: In vitro anti-tumor activity against AZ-521 human stomach cancer (MTT); format: cell-based; details: AZ-521, 72 h, MTT, read-out: IC50
Experimental: as §1

[3] = system: murine P388 lymphocytic leukemia cells; assay: Increases in life span of mice implanted with murine P388 lymphocytic leukemia cells; format: in vivo, SLC: BDF1 mice; details: Mus musculus, P388, ip, 720 h, ip
Experimental: 1×10^6 murine P388 lymphocytic leukemia cells were intraperitoneally implanted in each of SLC: BDF1 mice (8 to 10 weeks old, female, 7 animals per one group). A test compound (drug) was either dissolved in 0.1 N--NaOH or suspended in 0.4% carboxymethylcellulose solution, and the resultant solution or suspension was diluted with distilled water or 0.4% carboxymethylcellulose solution so as to give predetermined concentrations for administration. The obtained solution was intraperitoneally (ip) administered twice, namely on the day following the implantation (1st day) and the 5th day, each 0.2 ml. The life and death of the mice were observed over a period of 30 days, and the median survival time (hereinafter referred to as MST) was determined for each group, and, thus, the increase in life span (ILS; %) was calculated according to the following equation:
ILS (%)=[{(MST of the test group)/(MST of the control group)}-1]×100
Drug effect was judged in the following manner, according to the criterion of U.S. National Cancer Institute (NCI):
ILS=75% or higher: ++ (remarkably effective);
20 to 74%: + (effective);
19% or lower: - (ineffective)

[4] = system: WiDr human colorectal cancer; assay: In vitro anti-tumor activity against WiDr human colorectal cancer (MTT); format: cell-based; details: 72 h, MTT, read-out: IC50
Experimental: as §1

A427 human lung cancer = assay: In vitro anti-tumor activity against A-427 human lung cancer (MTT); format: cell-based; details: A-427, 72 h, MTT, read-out: IC50
Experimental: as §1

[5] = system: colon 26 murine tumor cells; assay: Tumor growth inhibition effect on colon 26 murine tumor cells implanted mice; format: in vivo, SLC: CDF1 mice; details: Mus musculus, Colon 26, 504 h, ip, days 1-9, day 21 or 22, read-out: Tumor growth inhibition rate IR (%); for inhibition in vivo at 3.13 mg/kg: 3.13 mg/kg once a day; for inhibition in vivo at 1.56 mg/kg: 1.56 mg/kg once a day; for inhibition in vivo at 6.25 mg/kg: 6.25 mg/kg once a day
Experimental: A 2% brei of colon 26 murine tumor cells was intracutaneously implanted each 0.1 ml in the abdominal part of SLC: CDF1 female mice (7 to 9 weeks old, 7 animals per one group). […] The obtained solutions were intraperitoneally (ip) administered each 0.2 ml once a day, from the day (1st day) following the implantation to the 9th day. On the 21st or 22nd day after the implantation, tumor weight was estimated from tumor diameters, and thus, the tumor growth inhibition rate (IR %) of the drug administered group in comparison with the control group was calculated according to the following equation. IR (%)=[1-{(MTW in the treated group)/(MTW in the control group)}]×10 0 MTW: mean tumor weight

[6] = system: murine P388 lymphocytic leukemia cells; assay: In vitro anti-tumor activity against murine P388 lymphocytic leukemia cells (MTT, 72 h); format: cell-based; details: Mus musculus; murine P388 cells, 72 h, MTT; read-out: IC50 (50% proliferation inhibitory concentration)
Experimental: Test compounds were tested for anti-tumor activity according to MTT [3-(4,5-dimethylthiazol-2-yl)-2,5-diphenyltetrazolium bromide] method, using murine P388 lymphocytic leukemia cells. […] The culture medium was centrifuged (4° C., 2,000 rpm for 20 minutes), and thus, the supernatants were removed by suction. Then, 0.1 ml of dimethyl sulfoxide was put in each well to dissolve the formed formazan, and, subsequently, another 0.1 ml of dimethyl sulfoxide was added. The absorbance (OD) of each of the obtained solutions was measured by use of Multiskan Bichromatic (main wavelength 570 nm, sub-wavelength 690 nm). […] IC50 :μg/ml) were calculated by the least squares method.

[7] = system: MKN45 human stomach cancer; assay: In vitro anti-tumor activity against MKN45 human stomach cancer (MTT); format: cell-based; details: MKN-45, MKN45, 72 h, MTT, read-out: IC50
Experimental: as §1

[8] = NCI criterion, read-out: Evaluation
[9] = days 1 and 5, in suspension, read-out: ILS (%) (in suspension)

Compound	IC50 (HMV2 human melanoma)	IC50 [1]	IC50 (C33A human cervix cancer)	IC50 [2]	ILS at 3.13 mg/kg [3, 8]	ILS at 12.5 mg/kg [3, 8]	ILS at 3.13 mg/kg [3, 9]	ILS at 12.5 mg/kg [3, 9]	IC50 [4]	IC50 (A427 human lung cancer)	inhibition in vivo at 3.13 mg/kg [5]	IC50 [6]	IC50 [7]	ILS at 50 mg/kg [3, 8]	ILS at 50 mg/kg [3, 9]	inhibition in vivo at 1.56 mg/kg [5]	inhibition in vivo at 0.78 mg/kg ([5]; 0.78 mg/kg once a day)	inhibition in vivo at 6.25 mg/kg [5]	inhibition in vivo at 1.1 mg/kg ([5]; 1.10 mg/kg once a day)
CN[C@@H]1CN(c2ccc3c(=O)c(C(=O)O)cn(-c4nccs4)c3n2)C[C@@H]1OC (relative stereo) [Compound 1-4]	0.197 µg/mL (≈ 0.491 µM)	0.147 µg/mL (≈ 0.366 µM)	0.143 µg/mL (≈ 0.356 µM)	0.0985 µg/mL (≈ 0.245 µM)	20 to 74%	> 75%	25%	100%	0.273 µg/mL (≈ 0.68 µM)	0.158 µg/mL (≈ 0.394 µM)	61%	0.02 µg/mL (≈ 0.0498 µM)	0.131 µg/mL (≈ 0.326 µM)						
C[C@@H]1CN(c2ccc3c(=O)c(C(=O)O)cn(-c4nccs4)c3n2)C[C@H]1N (relative stereo) [Compound 7]	0.139 µg/mL (≈ 0.374 µM)	0.111 µg/mL (≈ 0.299 µM)	0.105 µg/mL (≈ 0.283 µM)	0.0719 µg/mL (≈ 0.194 µM)	> 75%	> 75%	75%	100%	0.314 µg/mL (≈ 0.845 µM)	0.0933 µg/mL (≈ 0.251 µM)	95%	0.00955 µg/mL (≈ 0.0257 µM)	0.112 µg/mL (≈ 0.302 µM)	> 75%	188%	61%			
CN[C@@H]1CN(c2ccc3c(=O)c(C=O)cn(-c4nccs4)c3n2)C[C@H]1OC.Cl (relative stereo) [Compound 11, 3-Formyl-1,4-dihydro-7-(trans-3-methoxy-4-methylamino-1-pyrrolidinyl)-4-oxo-1-(2-thiazolyl)-1,8-naphthyridine hydrochloride]	0.214 µg/mL	0.179 µg/mL	0.161 µg/mL	0.0307 µg/mL	> 75%	> 75%	88%	150%	0.264 µg/mL	0.0749 µg/mL		0.0309 µg/mL	0.144 µg/mL	> 75%	225%	58%	50%		
C[C@@H]1CN(c2ccc3c(=O)c(C(=O)O)cn(-c4nccs4)c3n2)C[C@@]1(C)N (relative stereo) [Compound 12]	0.265 µg/mL (≈ 0.688 µM)	0.125 µg/mL (≈ 0.324 µM)	0.131 µg/mL (≈ 0.34 µM)	0.101 µg/mL (≈ 0.262 µM)		> 75%		75%	0.295 µg/mL (≈ 0.765 µM)	0.146 µg/mL (≈ 0.379 µM)	48%	0.0195 µg/mL (≈ 0.0506 µM)	0.164 µg/mL (≈ 0.425 µM)					84%	
CCN[C@@H]1CN(c2ccc3c(=O)c(C(=O)O)cn(-c4nccs4)c3n2)C[C@H]1OC (relative stereo) [Compound 13]	0.171 µg/mL (≈ 0.412 µM)	0.15 µg/mL (≈ 0.361 µM)	0.138 µg/mL (≈ 0.332 µM)	0.0717 µg/mL (≈ 0.173 µM)	20 to 74%	> 75%	25%	100%	0.268 µg/mL (≈ 0.645 µM)	0.15 µg/mL (≈ 0.361 µM)		0.0252 µg/mL (≈ 0.0607 µM)	0.139 µg/mL (≈ 0.335 µM)	> 75%	213%	41%			
CN[C@@H]1CN(c2cc(N)c3c(=O)c(C(=O)O)cn(-c4nccs4)c3n2)C[C@H]1OC (relative stereo) [Compound 15]	0.119 µg/mL (≈ 0.286 µM)	0.0604 µg/mL (≈ 0.145 µM)	0.0854 µg/mL (≈ 0.205 µM)	0.0288 µg/mL (≈ 0.0692 µM)	> 75%	> 75%	88%	200%	0.259 µg/mL (≈ 0.622 µM)	0.0696 µg/mL (≈ 0.167 µM)	68%	0.0157 µg/mL (≈ 0.0377 µM)	0.0964 µg/mL (≈ 0.231 µM)	> 75%	238%				
C[C@@H]1[C@@H](N)CCN1c1ccc2c(=O)c(C(=O)O)cn(-c3nccs3)c2n1 (relative stereo) [Compound 17]														> 75%	150%				
CN[C@@H]1CN(c2ccc3c(=O)c(C(=O)O)cn(-c4nccs4)c3n2)C[C@H]1OC (single isomer, unassigned) [Compound 1-2, (+)-1,4-Dihydro-7-(trans-3-methoxy-4-methylamino-1-pyrrolidinyl)-4-oxo-1-(2-thiazolyl)-1,8-naphthyridine-3-carboxylic acid]	0.114 µg/mL (≈ 0.284 µM)	0.0873 µg/mL (≈ 0.217 µM)	0.0828 µg/mL (≈ 0.206 µM)	0.0396 µg/mL (≈ 0.0986 µM)					0.357 µg/mL (≈ 0.889 µM)	0.0925 µg/mL (≈ 0.23 µM)		0.00641 µg/mL (≈ 0.016 µM)	0.155 µg/mL (≈ 0.386 µM)						69%
NC1CCN(c2ncc3c(=O)c(C(=O)O)cn(-c4nccs4)c3n2)C1 (centres unmarked) [Compound 14]	0.872 µg/mL (≈ 2.43 µM)	0.636 µg/mL (≈ 1.77 µM)		0.31 µg/mL (≈ 0.865 µM)	20 to 74%	> 75%	63%	113%			55%	0.0466 µg/mL (≈ 0.13 µM)		> 75%	> 275%			68%	
